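Each compound was tested at five concentrations against cells in 96-well plates for 48 hours. Definition used: TGI = concentration required for complete inhibition of growth.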
Columns and labels:
Assay in all cases: NCI tumour cell line growth inhibition, 48 h
[1] = test system: 786-0 renal
[2] = test system: A549 NSCLC
[3] = test system: HS 578T breast
[4] = test system: HT29 colon
[5] = test system: IGROV1 ovarian
[6] = test system: LOX IMVI melanoma
[7] = test system: MDA-N
[8] = test system: MOLT-4 leukemia
[9] = test system: OVCAR-4 ovarian
[10] = test system: SNB-19 CNS
[11] = test system: TK-10 renal

Row | SMILES | TGI [1] | TGI [2] | TGI [3] | TGI [4] | TGI [5] | TGI [6] | TGI [7] | TGI [8] | TGI [9] | TGI [10] | TGI [11]
1 | CCc1nnc2sc(-c3ccc(-c4ccccc4[N+](=O)[O-])o3)nn12 | > 100 µM | > 100 µM | > 100 µM | > 100 µM | > 100 µM | > 100 µM | 46.1 µM | 62.8 µM | > 100 µM | > 100 µM | > 100 µM
2 | COc1ccc(/C=N/n2c(-c3ccccc3)n[nH]c2=O)c(OC)c1 | > 100 µM | > 100 µM | 80 µM | 76.3 µM | > 100 µM | > 100 µM | > 100 µM | > 100 µM | > 86.6 µM | 50.1 µM | > 71.5 µM
3 | C=CCCCCCCCCCOC1C=CC(O)C(CO)O1 (stereo not given) | > 100 µM | > 100 µM | > 100 µM | 46.4 µM | 59.1 µM | > 100 µM | 82.1 µM | 86.7 µM | > 100 µM | > 100 µM | > 100 µM
4 | CCC(C)C(NC(=O)c1cccc2c(=O)c3ccccc3[nH]c12)C(=O)O (stereo not given) | > 100 µM | > 100 µM | > 100 µM | > 100 µM | > 100 µM | > 100 µM | > 100 µM | > 100 µM | > 100 µM | > 100 µM | > 100 µM
5 | Cc1csc(NCc2ccc(Cl)cc2)n1 | > 100 µM | > 100 µM | > 100 µM | > 100 µM | > 100 µM | > 100 µM | > 100 µM | > 100 µM | > 100 µM | > 100 µM | > 100 µM
6 | O=[N+]([O-])c1ccc(CSC2=C(c3ccc(Cl)cc3)S/C(=C3\SC(SCc4ccc([N+](=O)[O-])cc4)=C(c4ccc(Cl)cc4)S3)S2)cc1 | > 100 µM | > 100 µM | > 100 µM | > 100 µM | > 100 µM | > 100 µM | > 100 µM | > 100 µM | > 100 µM | > 100 µM | > 100 µM
7 | CCCNC(=O)c1cc(OC)c(OC)cc1NC(=O)C12CC3CC(CC(C3)C1)C2 | 30.6 µM | 35.3 µM | 51.5 µM | 32.2 µM | 53.3 µM | 39.7 µM | 30.3 µM | > 100 µM | 33.6 µM | 30 µM | 31.3 µM
8 | COc1ccc2cc(CNCCCCCCNC(=O)Nc3cccc4ccccc34)ccc2c1 | > 100 µM | > 100 µM | > 100 µM | > 100 µM | > 100 µM | > 100 µM | > 100 µM | > 100 µM | > 100 µM | > 100 µM | > 100 µM
9 | O=C1c2ccccc2CC12Cc1ccc3c(c1C2=O)CCCC3 (stereo not given) | > 100 µM | > 100 µM | 48.3 µM | > 100 µM | > 100 µM | > 100 µM | > 100 µM | 12.5 µM | > 100 µM | > 100 µM | > 100 µM
10 | c1cc(CSP234N5CCN2CCN3CCN4CC5)cc(CSP234N5CCN2CCN3CCN4CC5)c1 | > 100 µM | > 100 µM | 69.3 µM | 61 µM | 76.6 µM | 35.1 µM | 79.9 µM | 49.5 µM | > 100 µM | > 100 µM | > 100 µM
11 | CCCCCCCC(=O)NC(C)(C)C(=O)NCC(=O)NC(CC(C)C)C(=O)NC(C)(C)C(=O)NCC(=O)NCC(=O)NC(CC(C)C)C(=O)NC(C)(C)C(=O)NCC(=O)NC(C(=O)NC(CO)CC(C)C)C(C)CC (stereo not given) | 8.11 µM | 8.01 µM | 8.81 µM | 7.42 µM | 7.17 µM | 6.88 µM | 7.37 µM | 9.43 µM | 7.9 µM | 6.83 µM | 8.17 µM
12 | Cc1ccc(NC(c2ccccc2)P(=O)(c2ccccc2)c2ccccc2)cc1 (stereo not given) | > 100 µM | > 100 µM | > 100 µM | > 100 µM | > 100 µM | > 100 µM | > 100 µM | > 100 µM | > 100 µM | > 100 µM | > 100 µM
13 | CCOC(=O)/C(C(=O)c1ccc[nH]1)=C1/CCCN1C | > 100 µM | > 100 µM | > 100 µM | > 100 µM | > 100 µM | > 100 µM | > 100 µM | > 100 µM | > 100 µM | > 100 µM | > 100 µM
14 | C[N+]1(CC[N+]2(C)CCCC2c2cccnc2)CCCC1c1cccnc1 (stereo not given) | 90.7 µM | > 100 µM | > 100 µM | > 100 µM | > 100 µM | > 100 µM | > 100 µM | > 100 µM | > 100 µM | > 100 µM | > 100 µM
15 | CCC(CCCC[C@H]1CC[C@@H]2CC(=O)C[C@H]12)OC (stereo not given in full) | > 100 µM | > 100 µM | > 100 µM | > 100 µM | > 100 µM | > 100 µM | > 100 µM | > 100 µM | > 100 µM | > 100 µM | > 100 µM
16 | CC[C@@]1(O)C(=O)OCc2c1cc1n(c2=O)Cc2c-1nc1ccc(N)cc1c2CC[Si](C)(C)C | < 0.0276 µM | 0.177 µM | 27.3 µM | 11.6 µM | 0.469 µM | < 0.01 µM | 1.62 µM | < 0.01 µM | 5.94 µM | 11.1 µM | 3.88 µM
17 | Cc1[nH]c2c(C)c3c([nH]c4ccc(Cl)cc43)c(C)c2c(=O)c1C | 33 µM | 10 µM | > 100 µM | 12.8 µM | > 65.5 µM | 15.7 µM | 32.6 µM | 8.44 µM | > 64.1 µM | > 100 µM | 24.1 µM
18 | Cc1n[nH]c(=O)c2c3c([nH]c12)-c1ccccc1C3 | > 100 µM | > 100 µM | > 100 µM | > 100 µM | > 100 µM | > 100 µM | > 100 µM | > 100 µM | > 100 µM | > 100 µM | > 100 µM
19 | C1CCC(CC2CCC(NC3=NCCO3)CC2)CC1 (stereo not given) | 29.2 µM | > 100 µM | 40.6 µM | 17.1 µM | 37.1 µM | 30.9 µM | 35.9 µM | 48.1 µM | 48.2 µM | 34.3 µM | 28.6 µM
20 | O=C1OCOC2(CCCC2)C1c1ccccc1 (stereo not given) | > 100 µM | > 100 µM | > 100 µM | > 100 µM | > 100 µM | > 100 µM | > 100 µM | > 100 µM | > 100 µM | > 100 µM | > 100 µM
